Structures can show the parent of a compound that is named as a salt.
Legend:
Experiment in all cases: MIC, standard broth dilution method in microtitre
Type in all cases: cell-based
H. influenzae ATCC 49247 = conditions: Haemophilus influenzae, ATCC49247
Procedure: (§1) Using a standard broth dilution method in microtitre, compounds were tested for antibacterial activity. The compounds in the above examples gave minimum inhibitory concentrations (MICs) less than 1 microgram per millilitre against erythromycin-sensitive and erythromycin-resistant strains of Streptococcus pneumoniae and Streptococcus pyogenes.
(§2) In addition, the MIC (μg/mL) of test compounds against various organisms was determined including:
(§3) S. aureus Smith ATCC 13709, S. pneumoniae SP030, S. pyogenes 3565, E. faecalis ATCC 29212, H. influenzae ATCC 49247, M. catarrhalis ATCC 23246.

[1] = tested on: M. catarrhalis ATCC 23246; conditions: Moraxella catarrhalis, ATCC23246
Procedure: as §1, §2, §3

[2] = tested on: erythromycin-resistant strains of Streptococcus pneumoniae
Procedure: as §1

[3] = tested on: erythromycin-resistant strains of Streptococcus pyogenes
Procedure: as §1

E. faecalis ATCC 29212 = conditions: Enterococcus faecalis, ATCC29212
Procedure: as §1, §2, §3

[4] = tested on: S. aureus Smith ATCC 13709; conditions: Staphylococcus aureus, ATCC13709
Procedure: as §1, §2, §3

S. pneumoniae SP030 = conditions: Streptococcus pneumoniae
Procedure: as §1, §2, §3

S. pyogenes 3565 = conditions: Streptococcus pyogenes
Procedure: as §1, §2, §3

| Compound | MIC (H. influenzae ATCC 49247) | MIC [1] | MIC [2] | MIC [3] | MIC (E. faecalis ATCC 29212) | MIC [4] | MIC (S. pneumoniae SP030) | MIC (S. pyogenes 3565) |
| --- | --- | --- | --- | --- | --- | --- | --- | --- |
| CC[C@@H]1OC(=O)[C@H](C)[C@H](O[C@@H]2C[C@](C)(OC)[C@H](OC(=O)CCNCCCc3ccc4c(c3)c(=O)c(C(=O)O)cn4CC)[C@H](C)O2)[C@@H](C)[C@H](O[C@@H]2O[C@H](C)C[C@H](N(C)C)[C@@H]2O)[C@](C)(OC)C[C@H](C)C(=O)[C@@H](C)[C@H]2NC(=O)O[C@@]12C [Example 7, 4″-O-{3-[3-(3-Carboxy-1,4-dihydro-1-ethyl-4-oxo-6-quinolinyl)propylamino]-propionyl}-6-O-methyl-11-desoxy-11-(R)-amino-erythromycin A 11,12-carbamate diformate salt] | ≤ 2 µg/mL | ≤ 2 µg/mL | ≤ 0.25 µg/mL | ≤ 0.25 µg/mL |  |  |  |  |
| CC[C@@H]1OC(=O)[C@H](C)[C@H](O[C@@H]2C[C@](C)(OC)[C@H](OC(=O)CCNCCCc3ccc4c(c3)c(=O)c(C(=O)OC)cn4CC)[C@H](C)O2)[C@@H](C)[C@H](O[C@@H]2O[C@H](C)C[C@H](N(C)C)[C@@H]2O)[C@](C)(OC)C[C@H](C)C(=O)[C@@H](C)[C@H]2NC(=O)O[C@@]12C [Example 8, 4″-O-{3-[3-(3-Carboxy-1,4-dihydro-1-ethyl-4-oxo-6-quinolinyl)propylamino]propionyl}-6-O-methyl-11-desoxy-11-(R)-amino-erythromycin A 11,12-carbamate methyl ester diformate salt] |  |  | ≤ 0.25 µg/mL | ≤ 0.25 µg/mL | ≤ 1 µg/mL | ≤ 1 µg/mL | ≤ 1 µg/mL | ≤ 1 µg/mL |
| CC[C@@H]1OC(=O)[C@H](C)[C@H](O[C@@H]2C[C@](C)(OC)[C@H](OC(=O)CCNCCCc3ccc4c(c3)c(=O)c(C(=O)O)cn4CC)[C@H](C)O2)[C@@H](C)[C@H](O[C@@H]2O[C@H](C)C[C@H](N(C)C)[C@@H]2O)[C@](C)(O)C[C@H](C)CN(C)[C@@H](C)[C@H]2OC(=O)O[C@@]12C [Example 6, 4″-O-{3-[3-(3-Carboxy-1-dihydro-1-ethyl-4-oxo-6-quinolinyl)propylamino]propionyl}-azithromycin-11,12-carbonate] | ≤ 2 µg/mL | ≤ 2 µg/mL | ≤ 0.25 µg/mL | ≤ 0.25 µg/mL | ≤ 1 µg/mL | ≤ 1 µg/mL | ≤ 1 µg/mL | ≤ 1 µg/mL |
| CC[C@H]1OC(=O)[C@H](C)[C@@H](O[C@H]2C[C@@](C)(OC)[C@@H](OC(=O)CCNCCCc3cc4c(cc3F)c(=O)c(C(=O)O)cn4CC)[C@H](C)O2)[C@H](C)[C@@H](O[C@@H]2O[C@H](C)C[C@H](N(C)C)[C@H]2O)[C@](C)(OC)C[C@@H](C)C(=O)[C@H](C)[C@@H](O)[C@]1(C)O [Example 1, 4″-O-{3-[3-(3-Carboxy-1,4-dihydro-1-ethyl-6-fluoro-4-oxo-7-quinolinyl)propylamino]propionyl}-6-O-methylerythromycin A] |  |  |  |  | ≤ 1 µg/mL | ≤ 1 µg/mL | ≤ 1 µg/mL | ≤ 1 µg/mL |
| CC[C@@H]1OC(=O)[C@H](C)[C@H](O[C@@H]2C[C@](C)(OC)[C@H](OC(=O)CCNCCCc3ccc4c(c3)c(=O)c(C(=O)O)cn4CC)[C@H](C)O2)[C@@H](C)[C@H](O[C@@H]2O[C@H](C)C[C@H](N(C)C)[C@@H]2O)[C@](C)(O)C[C@H](C)CN(C)[C@H](C)[C@@H](O)[C@]1(C)O [Example 5, 4″-O-{3-[3-(3-Carboxy-1,4-dihydro-1-ethyl-4-oxo-6-quinolinyl)propylamino]propionyl}-azithromycin] |  |  | ≤ 0.25 µg/mL | ≤ 0.25 µg/mL |  |  |  |  |
| CC[C@@H]1OC(=O)[C@H](C)[C@H](O[C@@H]2C[C@](C)(OC)[C@H](OC(=O)CCNCCCc3cc4c(cc3F)c(=O)c(C(=O)O)cn4CC)[C@H](C)O2)[C@@H](C)[C@H](O[C@@H]2O[C@H](C)C[C@H](N(C)C)[C@@H]2O)[C@](C)(O)C[C@H](C)CN(C)[C@H](C)[C@@H](O)[C@]1(C)O [Example 2, 4″-O-{3-[3-(3-Carboxy-1,4-dihydro-1-ethyl-6-fluoro-4-oxo-7-quinolinyl)propylamino]propionyl}-azithromycin tris trifluoroacetate salt] |  |  |  |  | ≤ 1 µg/mL | ≤ 1 µg/mL | ≤ 1 µg/mL | ≤ 1 µg/mL |

— patent US20070293472A1, “Novel 14 and 15 Membered Ring Compounds” (Glaxo Group Limited, priority 2003, published 2007)
